pIC50: −log10 of the molar value.
Biological target: T1, endothelin converting enzyme (ECE) (Oryctolagus cuniculus, UniProt A0A5F9CTJ8)
T1 construct: The left saphenous artery was removed and cleaned of the surrounding tissue, cut into 2-3 mm length rings; from tissue; host or cells: left saphenous artery rings of male New Zealand rabbits
T1 sequence (A0A5F9CTJ8 1-783): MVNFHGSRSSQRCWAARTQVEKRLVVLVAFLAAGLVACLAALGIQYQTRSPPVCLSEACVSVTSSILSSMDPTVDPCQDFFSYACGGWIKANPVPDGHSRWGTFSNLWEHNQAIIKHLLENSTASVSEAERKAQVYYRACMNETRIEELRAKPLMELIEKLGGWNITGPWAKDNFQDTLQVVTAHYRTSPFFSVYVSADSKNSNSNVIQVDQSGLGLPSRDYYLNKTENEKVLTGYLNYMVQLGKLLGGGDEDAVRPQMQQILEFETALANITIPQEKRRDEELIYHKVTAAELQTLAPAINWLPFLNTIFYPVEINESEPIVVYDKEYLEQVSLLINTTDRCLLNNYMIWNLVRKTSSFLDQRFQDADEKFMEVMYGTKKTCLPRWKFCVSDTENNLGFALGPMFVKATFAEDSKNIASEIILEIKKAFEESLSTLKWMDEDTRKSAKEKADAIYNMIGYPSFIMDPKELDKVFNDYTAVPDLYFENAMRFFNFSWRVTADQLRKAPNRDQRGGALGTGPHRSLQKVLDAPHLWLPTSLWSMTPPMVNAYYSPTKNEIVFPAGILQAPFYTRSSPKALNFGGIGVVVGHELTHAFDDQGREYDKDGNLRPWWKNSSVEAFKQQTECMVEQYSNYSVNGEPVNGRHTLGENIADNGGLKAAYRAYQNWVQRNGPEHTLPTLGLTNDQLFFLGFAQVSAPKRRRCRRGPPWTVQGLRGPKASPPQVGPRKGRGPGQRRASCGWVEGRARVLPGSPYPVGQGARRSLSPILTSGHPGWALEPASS
Experiment: In vitro ECE-inhibitory activity (inhibition of Big endothelin response in rabbit left saphenous artery rings)
Assay type: cell-based, New Zealand rabbits
Details: human Big endothelin 3×10^-8 M, compound contact 30 minutes
Description: Male New Zealand rabbits (2.5-3 Kg) were sacrificed with an excess of pentobarbital and blood was drawn. […] This solution was composed of (mM); NaCl, 118; KCl, 4.7; CaCl2, 2.5; KH2 PO4, 1.2; MgSO4, 1.2; NaHCO3, […]; glucose, 11. The preparations were kept under tension and readjusted to 1 g during the equilibration period (1 hour).
After said period, the preparations were exposed to a submaximal concentration of norepinephrine 1 μM which was repeated every 30 minutes until the response was stable. A concentration of acetylcholine 10 μM on the contraction of norepinephrine verified the presence of the endothelium.
After 30 minutes from the last contraction due to norepinephrine, a concentration of human Big endothelin 3×10^-8 M was administered. […] The percentage of ECE-inhibition was expressed as IC50 value (nM).

In the case of CC(C)C[C@H](NP(=O)(O)O[C@@H]1O[C@@H](C)[C@H](O)[C@@H](O)[C@H]1O)C(=O)N[C@@H](Cc1c[nH]c2ccccc12)C(=O)O [Phosphoramidon, N-[N-[[(6-deoxy-α-L-mannopyranosyl)oxy]hydroxyphos-phinyl]-l-leucyl]-L-tryptophan], the pIC50 was 7.30.
